# Where a name gives a salt, the structure may show the parent alone.
# Details: heated at 60-70° C.
structure (smiles),measurement,value
NNc1nncc2ccccc12 [Hydralazine HCl],solubility in the aqueous phase of the formulation,fully soluble

# Reference: patent US20220080026A1, “FORMULATIONS” (Sublimity Therapeutics Limited, priority 2013, published 2022)
